Data: patent US10774064B2 (Cadent Therapeutics, Inc., priority 2016, dated 2020)
Where a name gives a salt, the structure may show the parent alone.

biological target: T1, small-conductance Ca2+-activated K+ channels (SK channels, subtype 2) (Homo sapiens, UniProt Q9H2S1); assay: whole-cell patch-clamp of ionic current through SK2 channels in HEK293 cells (SC100); assay type: cell-based; conditions: concentration that increases the basal current by 100%; HEK293 cells expressing SK2 channels
T1 construct: expressed in transfected cells; host or cells: HEK293
Experimental: The biological activity was determined as follows. The ionic current through small-conductance Ca^2+-activated K^+ channels (SK channels, subtype 2) was measured using the whole-cell configuration of the patch-clamp technique in a patch-clamp set-up using HEK293 tissue culture cells expressing SK2 channels as described in Hougaard et al., British Journal of Pharmacology 151, 655-665, May 8, 2007, the entire teachings of which are incorporated herein by reference. In one aspect, a compound is defined to be an SK PAM if the compound increases current in this assay, for example, if the SC100 value of the compound is less than or equal to 10 μM as determined by this assay. The SC100 value is defined to be the concentration of compound that increases the basal current by 100%.

SMILES	SC100
Cc1cc(C)n(-c2nc(NC3CCC(F)(F)CC3)cc(N3CCOC(CO)C3)n2)n1 (racemic) [Compound 110, (4-(6-((4,4-difluorocyclohexyl)amino)-2-(3,5-dimethyl-1H-pyrazol-1-yl)pyrimidin-4-yl)morpholin-2-yl)methanol]	++ (++ means 200 nM-1000 nM)
Cc1cc(C)n(-c2cc(NC3CCN(C)C3=O)cc(NC3CCC(F)(F)CC3)n2)n1 (racemic) [Compound 135, 3-((2-((4,4-difluorocyclohexyl)amino)-6-(3,5-dimethyl-1H-pyrazol-1-yl)pyridin-4-yl)amino)-1-methylpyrrolidin-2-one]	+ (+ means >1 uM)
Cc1csc(-c2nc(NC3CCC(F)(F)CC3)cc(C(C)O)n2)n1 (racemic) [Compound 362, 1-(6-((4,4-difluorocyclohexyl)amino)-2-(4-methylthiazol-2-yl)pyrimidin-4-yl)ethan-1-ol]	++ (++ means 200 nM-1000 nM)
Cc1cc(C)n(-c2nc(NC3CCC(F)(F)CC3)cc([C@H]3COCC[C@H]3O)n2)n1 (relative stereo) [Compound 257, (−)-3-(6-((4,4-difluorocyclohexyl)amino)-2-(3,5-dimethyl-1H-pyrazol-1-yl)pyrimidin-4-yl)tetrahydro-2H-pyran-4-ol]	+ (+ means >1 uM)
Cc1cc(C)n(-c2nc(NC3CCC(F)(F)CC3)cc(N3CCO[C@@H](CO)C3)n2)n1 (single isomer, unassigned) [Compound 112, (+)-(4-(6-((4,4-difluorocyclohexyl)amino)-2-(3,5-dimethyl-1H-pyrazol-1-yl)pyrimidin-4-yl)morpholin-2-yl)methanol]	++ (++ means 200 nM-1000 nM)
Cc1cc(C)n(-c2nc(NC3CCC(F)(F)CC3)cc(N3CCO[C@H](CO)C3)n2)n1 (single isomer, unassigned) [Compound 113, (−)-(4-(6-((4,4-difluorocyclohexyl)amino)-2-(3,5-dimethyl-1H-pyrazol-1-yl)pyrimidin-4-yl)morpholin-2-yl)methanol]	++ (++ means 200 nM-1000 nM)
Cc1cc(C)n(-c2nc(NC3CCC(F)(F)CC3)cc(N[C@H]3CCN(C)C3=O)n2)n1 (single isomer, unassigned) [Compound 128, (+)-3-((6-((4,4-difluorocyclohexyl)amino)-2-(3,5-dimethyl-1H-pyrazol-1-yl)pyrimidin-4-yl)amino)-1-methylpyrrolidin-2-one]	+ (+ means >1 uM)
Cc1cc(C)n(-c2cc(N[C@H]3CCN(C)C3=O)cc(NC3CCC(F)(F)CC3)n2)n1 (single isomer, unassigned) [Compound 138, (+)-3-((2-((4,4-difluorocyclohexyl)amino)-6-(3,5-dimethyl-1H-pyrazol-1-yl)pyridin-4-yl)amino)-1-methylpyrrolidin-2-one]	+ (+ means >1 uM)
Cc1cc(C)n(-c2cc(N[C@@H]3CCN(C)C3=O)cc(NC3CCC(F)(F)CC3)n2)n1 (single isomer, unassigned) [Compound 139, (−)-3-((2-((4,4-difluorocyclohexyl)amino)-6-(3,5-dimethyl-1H-pyrazol-1-yl)pyridin-4-yl)amino)-1-methylpyrrolidin-2-one]	+ (+ means >1 uM)
Cc1cc(C)n(-c2nc(NC3CCC(F)(F)CC3)cc([C@@H](C)O)n2)n1 (single isomer, unassigned) [Compound 198, (−)1-(6-((4,4-difluorocyclohexyl)amino)-2-(3,5-dimethyl-1H-pyrazol-1-yl)pyrimidin-4-yl)ethan-1-ol]	+ (+ means >1 uM)
Cc1cc(C)n(-c2nc(N[C@H]3CCCC(F)(F)C3)cc([C@@H](C)O)n2)n1 (single isomer, unassigned) [Compound 354]	+ (+ means >1 uM)
Cc1csc(-c2nc(NC3CCC(F)(F)CC3)cc([C@H](C)O)n2)n1 (single isomer, unassigned) [Compound 363]	++ (++ means 200 nM-1000 nM)
Cc1csc(-c2nc(NC3CCC(F)(F)CC3)cc([C@@H](C)O)n2)n1 (single isomer, unassigned) [Compound 364]	++ (++ means 200 nM-1000 nM)
Cc1cc(C)n(-c2nc(NC3CCC(F)(F)CC3)cc(NC(C(N)=O)C(C)C)n2)n1 (stereo in doubt) [Compound 164, (R)-2-((6-((4,4-difluorocyclohexyl)amino)-2-(3,5-dimethyl-1H-pyrazol-1-yl)pyrimidin-4-yl)amino)-3-methylbutanamide]	+ (+ means >1 uM)
Cc1cc(C)n(-c2nc(NC3CCC(F)(F)CC3)cc(N3CCNC(C(N)=O)C3)n2)n1 (centres unmarked) [Compound 100, 4-(6-((4,4-difluorocyclohexyl)amino)-2-(3,5-dimethyl-1H-pyrazol-1-yl)pyrimidin-4-yl)piperazine-2-carboxamide]	+ (+ means >1 uM)
CC(=O)N1CCN(c2cc(-n3nc(C)cc3C)nc(NC3CCC(F)(F)CC3)n2)CC1 [Compound 101, 1-(4-(2-((4,4-difluorocyclohexyl)amino)-6-(3,5-dimethyl-1H-pyrazol-1-yl)pyrimidin-4-yl)piperazin-1-yl)ethan-1-one]	++ (++ means 200 nM-1000 nM)
CC(=O)N1CCN(c2cc(NC3CCC(F)(F)CC3)nc(-n3nc(C)cc3C)n2)CC1 [Compound 102, 1-(4-(6-((4,4-difluorocyclohexyl)amino)-2-(3,5-dimethyl-1H-pyrazol-1-yl)pyrimidin-4-yl)piperazin-1-yl)ethan-1-one]	++ (++ means 200 nM-1000 nM)
Cc1cc(C)n(-c2nc(NC3CCC(F)(F)CC3)cc(N3C[C@H]4CC3CN4)n2)n1 [Compound 103, 6-((4R)-2,5-diazabicyclo [2.2.1]heptan-2-yl)-N-(4,4-difluorocyclohexyl)-2-(3,5-dimethyl-1H-pyrazol-1-yl)pyrimidin-4-amine hydrochloride salt]	+ (+ means >1 uM)
Cc1cc(C)n(-c2cc(N3C[C@H]4C[C@@H]3CN4)nc(NC3CCC(F)(F)CC3)n2)n1 [Compound 104, 4-((1R,4R)-2,5-diazabicyclo[2.2.1]heptan-2-yl)-N-(4,4-difluorocyclohexyl)-6-(3,5-dimethyl-1H-pyrazol-1-yl)pyrimidin-2-amine]	++ (++ means 200 nM-1000 nM)
Cc1cc(C)n(-c2nc(NC3CCC(F)(F)CC3)cc(N3CC4(COC4)C3)n2)n1 [Compound 105, N-(4,4-difluorocyclohexyl)-2-(3,5-dimethyl-1H pyrazol-1-yl)-6-(2-oxa-6-azaspiro[3.3]heptan-6-yl)pyrimidin-4-amine]	+ (+ means >1 uM)
Cc1cc(C)n(-c2cc(N3CCNC(C(N)=O)C3)nc(NC3CCC(F)(F)CC3)n2)n1 (centres unmarked) [Compound 106, 4-(2-((4,4-difluorocyclohexyl)amino)-6-(3,5-dimethyl-1H-pyrazol-1-yl)pyrimidin-4-yl)piperazine-2-carboxamide]	++ (++ means 200 nM-1000 nM)
Cc1cc(C)n(-c2cc(NC(C)C(N)=O)nc(NC3CCC(F)(F)CC3)n2)n1 (centres unmarked) [Compound 107, 2-((2-((4,4-difluorocyclohexyl)amino)-6-(3,5-dimethyl-1H-pyrazol-1-yl)pyrimidin-4-yl)amino)propanamide]	+ (+ means >1 uM)
Cc1cc(C)n(-c2cc(N3CC4(COC4)C3)nc(NC3CCC(F)(F)CC3)n2)n1 [Compound 108, N-(4,4-difluorocyclohexyl)-4-(3,5-dimethyl-1H-pyrazol-1-yl)-6-(2-oxa-6-azaspiro[3.3]heptan-6-yl)pyrimidin-2-amine]	+ (+ means >1 uM)
Cc1cc(C)n(-c2nc(NC3CCC(F)(F)CC3)cc(NC(C)C(N)=O)n2)n1 (centres unmarked) [Compound 109, 2-((6-((4,4-difluorocyclohexyl)amino)-2-(3,5-dimethyl-1H-pyrazol-1-yl)pyrimidin-4-yl)amino)propanamide]	+ (+ means >1 uM)
CCc1cnc(-n2nc(C)cc2C)nc1NC1CCC(F)(F)CC1 [Compound 111, N-(4,4-difluorocyclohexyl)-2-(3,5-dimethyl-1H-pyrazol-1-yl)-5-ethylpyrimidin-4-amine]	+ (+ means >1 uM)
Cc1cc(C)n(-c2cc(N3CCOC(C(N)=O)C3)nc(NC3CCC(F)(F)CC3)n2)n1 (centres unmarked) [Compound 114, 4-(2-((4,4-difluorocyclohexyl)amino)-6-(3,5-dimethyl-1H-pyrazol-1-yl)pyrimidin-4-yl)morpholine-2-carboxamide]	+ (+ means >1 uM)
Cc1cc(C)n(-c2nc(NC3CCC(F)(F)CC3)cc(N3CCOC(C(N)=O)C3)n2)n1 (centres unmarked) [Compound 115, 4-(6-((4,4-difluorocyclohexyl)amino)-2-(3,5-dimethyl-1H-pyrazol-1-yl)pyrimidin-4-yl)morpholine-2-carboxamide]	+ (+ means >1 uM)
Cc1cc(C)n(-c2nc3c(c(NC4CCC(F)(F)CC4)n2)CCN(Cc2ccccc2)C3)n1 [Compound 116]	++ (++ means 200 nM-1000 nM)
Cc1cc(C)n(-c2nc(NC3CCC(F)(F)CC3)cc(-n3cccn3)n2)n1 [Compound 117, N-(4,4-difluorocyclohexyl)-2-(3,5-dimethyl-1H-pyrazol-1-yl)-6-(1H-pyrazol-1-yl)pyrimidin-4-amine]	++ (++ means 200 nM-1000 nM)

same assay, conditions: whole-cell patch-clamp, HEK293 cells expressing SK2 channels; concentration that increases the basal current by 100%

SMILES	SC100 (μM)
Cc1csc(-c2cc(N(C)C)cc(NC3CCC(F)(F)CC3)n2)n1	++ (++ means 200 nM-1000 nM)
FCc1ccn(-c2nc(NC3CC=CCC3)cc(N3CCOCC3)n2)n1 (centres unmarked)	+ (+ means >1 uM)
FCc1ccn(-c2nc(NC3CCC(F)CC3)cc(N3CCOCC3)n2)n1 (centres unmarked)	+ (+ means >1 uM)
